Results from patent US20130022649A1, “SNALP FORMULATIONS CONTAINING ANTIOXIDANTS” (Protiva Biotherapeutics, Inc., priority 2009, published 2013).

Test: Lipid content and purity by reverse phase HPLC (Example 3 Study 3)
Format: physicochemical
Settings: in 20 mM citrate 1:57 SNALP formulation
Experimental: Samples were removed after 2 weeks of storage at room temperature (RT) or 40° C. (accelerated conditions). Samples were analyzed for particle size, encapsulation efficiency, lipid content and purity, and siRNA content and purity. Particle size measurements were obtained using a Malvern Zetasizer instrument and encapsulation efficiency was determined using a RiboGreen fluorometric assay. Lipid content and purity were analyzed by reverse phase HPLC. siRNA content and purity were analyzed by denaturing anion-exchange HPLC (DENAX).
Reverse phase HPLC analysis was performed to assess the level of lipid degradation. The results are shown Tables 23-25. […] The formulations containing EDTA or EDTA combined with additional antioxidants had no significant change in lipid content at either storage temperature. The same trends in lipid stability were observed regardless of which cationic lipid was present in the formulation.

cationic lipid content before the drop: about 58 mol %
cationic lipid content after storage (2 weeks at 40° C.): about 52 mol %
SMILES: CCCCC/C=C\C/C=C\CCCCCCCCC(CCCCCCCC/C=C\C/C=C\CCCCC)OCCCCN(C)C [MC4 Ether, 4-((6Z,9Z,28Z,31Z)-heptatriaconta-6,9,28,31-tetraen-19-yloxy)-N,N-dimethylbutan-1-amine]
